For the test, the target named is Mu-type opioid receptor (Rattus norvegicus, UniProt P33535). Kind of test: Displacement of [3H]DAMGO from mu opioid receptor in rat brain homogenate.
Mu-type opioid receptor, sequence (P33535 whole entry): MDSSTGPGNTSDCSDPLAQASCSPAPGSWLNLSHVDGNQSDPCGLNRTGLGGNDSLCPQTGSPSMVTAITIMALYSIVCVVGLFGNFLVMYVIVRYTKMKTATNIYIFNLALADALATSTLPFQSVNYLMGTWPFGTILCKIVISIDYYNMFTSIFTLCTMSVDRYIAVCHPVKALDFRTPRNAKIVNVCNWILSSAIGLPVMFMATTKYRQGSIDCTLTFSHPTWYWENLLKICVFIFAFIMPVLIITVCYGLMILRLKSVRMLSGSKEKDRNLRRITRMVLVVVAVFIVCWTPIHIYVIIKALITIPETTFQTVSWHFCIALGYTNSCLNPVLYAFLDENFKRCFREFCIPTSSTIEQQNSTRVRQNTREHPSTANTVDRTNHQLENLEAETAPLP

A word on the IC50: it is the midpoint of a concentration-inhibition curve. `CN[C@@H](Cc1ccc(O)cc1)CN(C)[C@H](CNCc1ccccc1)Cc1ccc(O)cc1` [4-[(2S)-3-{[(2S)-1-(benzylamino)-3-(4-hydroxyphenyl)propan-2-yl](methyl)amino}-2-(methylamino)propyl]phenol]: the IC50 was 2 nM.

These data come from BindingDB's records for doi:10.1016/j.bmcl.2006.05.053 (Institute For Molecular Studies, 2006).
